Measurements reported in patent US10858335B2 (Rigel Pharmaceuticals, Inc., priority 2014, dated 2020).

Test system: GDF8 signaling (p-SMAD-3 (Ser423/425))
Assay: AlphaScreen SureFire SMAD3 (p-Ser423/425) assay, GDF8-stimulated cells (GDF pSMAD)
Assay type: cell-based
Conditions: Mus musculus, MPC-11, GDF8-stimulated pSMAD3, MPC11; tested as the salt form given; read-out: GDF pSMAD (MPC11) (μM), inhibition of GDF8 signaling

| Compound | IC50 [µM] |
| --- | --- |
| Cc1ccc(F)c(-c2ncccc2-c2ccc3ncnc(N)c3c2)c1 [compound 1004, 6-(2-(2-fluoro-5-methylphenyl)pyridin-3-yl)quinazolin-4-amine] | 0.203 |
| Nc1ncnc2ccc(-c3cccnc3-c3ccc(F)c(OC(F)F)c3)cc12 [compound 1010, 6-(2-(3-(difluoromethoxy)-4-fluorophenyl)pyridin-3-yl)quinazolin-4-amine] | 0.562 |

Same assay, conditions: Mus musculus, MPC-11, MPC11; GDF8-stimulated; p-SMAD3 AlphaScreen; read-out: GDF pSMAD (MPC11) (inhibition of GDF8 signaling)

| IC50 [µM] | Compound |
| --- | --- |
| 8.14 | COc1ccnc2ccc(-c3cccnc3-c3cc(Cl)ccc3F)cc12 [compound 840, 6-(2-(5-Chloro-2-fluorophenyl)pyridin-3-yl)-4-methoxyquinoline] |
| 1.54 | Cc1cc(-c2ncccc2-c2cn3ccnc3cc2C)ccc1F [compound 808, 6-(2-(4-Fluoro-3-methylphenyl)pyridin-3-yl)-7-methylimidazo[1,2-a]pyridine] |
| 5.86 | c1ccc(-c2ncccc2-c2ccc3ncnn3c2)cc1 [compound 781, 6-(2-Phenylpyridin-3-yl)-[1,2,4]triazolo[1,5-a]pyridine] |
| 0.245 | Cc1cc(-c2ncccc2-c2ccn3ncc(C(=O)NC4CCN(C)CC4)c3c2)ccc1F [compound 655, 5-(2-(4-Fluoro-3-methylphenyl)pyridin-3-yl)-N-(1-methylpiperidin-4-yl)pyrazolo[1,5-a]pyridine-3-carboxamide] |
| 0.499 | COc1cccc(-c2ncccc2-c2ccc3ncsc3c2)c1 [compound 669, 6-(2-(3-Methoxyphenyl)pyridin-3-yl)benzo[d]thiazole] |

More lines, now with the values behind:

| Compound | IC50 [µM] |
| --- | --- |
| COc1cc(NC(=O)c2cnc3ccc(-c4cccnc4-c4cccc(C5CC5)c4)cn23)cc(OC)c1OC [compound 575, 6-(2-(3-Cyclopropylphenyl)pyridin-3-yl)-N-(3,4,5-trimethoxyphenyl)imidazo[1,2-a]pyridine-3-carboxamide] | 1.17 |
| Nc1ncnc2ccc(-c3cccnc3-c3cc(O)cc(Cl)c3)cc12 [compound 493, 3-(3-(4-Aminoquinazolin-6-yl)pyridin-2-yl)-5-chlorophenol] | 0.938 |
| c1cc(-c2ncccc2-c2cnc3[nH]ncc3c2)cc(C2CC2)c1 [Compound 152, 5-(2-(3-Cyclopropylphenyl)pyridin-3-yl)-1H-pyrazolo[3,4-b]pyridine] | 0.0487 |
| Cc1cc(-c2ncccc2-c2ccc3cnc(C(=O)NCCCN4CCCC4)n3c2)ccc1F [compound 273, 6-(2-(4-Fluoro-3-methylphenyl)pyridin-3-yl)-N-(3-(pyrrolidin-1-yl)propyl)imidazo[1,5-a]pyridine-3-carboxamide] | 9.79 |
| COc1cc(CNc2cnc(-c3ccc(F)c(C)c3)c(-c3ccc4ncsc4c3)c2)cc(O)c1OC [compound 367, 5-(((5-(Benzo[d]thiazol-6-yl)-6-(4-fluoro-3-methylphenyl)pyridin-3-yl)amino)methyl)-2,3-dimethoxyphenol] | 0.28 |
| Nc1cnc(-c2cccc(C3CC3)c2)c(-c2ccc3[nH]ncc3c2)c1 [Compound 15, 6-(3-Cyclopropylphenyl)-5-(1H-indazol-5-yl)pyridin-3-amine] | 0.0649 |
| CNC(=O)COCc1cnc(-c2ccc(F)c(C)c2)c(-c2ccc3nccnc3c2)c1 [compound 232, 2-((6-(4-Fluoro-3-methylphenyl)-5-(quinoxalin-6-yl)pyridin-3-yl)methoxy)-N-methylacetamide] | 10.6 |
| Nc1ncnc2ccc(-c3cccnc3-c3cccc(Cl)c3)cc12 [compound 393, 6-(2-(3-Chlorophenyl)pyridin-3-yl)quinazolin-4-amine] | 0.07 |
| Cc1cc(-c2ncc(NCc3ccc(O)c(F)c3)cc2-c2ccc3ncsc3c2)ccc1F [compound 369, 4-(((5-(Benzo[d]thiazol-6-yl)-6-(4-fluoro-3-methylphenyl)pyridin-3-yl)amino)methyl)-2-fluorophenol] | 0.193 |
| COC(=O)c1cc(-c2cccnc2-c2ccc(F)c(C)c2)cc2cn[nH]c12 [compound 190, Methyl 5-(2-(4-fluoro-3-methylphenyl)pyridin-3-yl)-1H-indazole-7-carboxylate] | 1.55 |
